Measurements: ChEMBL document CHEMBL3091333, “Design, synthesis and biological evaluation of novel 4-anilinoquinazolines with C-6 urea-linked side chains as inhibitors of the epidermal growth factor receptor” (Bioorg Med Chem, 2013)
The source made the active and inactive calls. The calls are words filed in the database; no cut-off is given here.

Experiments:
[1] = biological target: T1, Epidermal growth factor receptor (Homo sapiens, UniProt P00533); assay: Inhibition of EGF-induced EGFR phosphorylation in human A431 cells incubated for 1 hr prior to EGF induction measured after 10 mins by Western blotting analysis; assay type: cell-based; details: A-431
[2] = system: NCI-H1975; assay: Antiproliferative activity against human NCI-H1975 cells expressing EGFR T790M mutant after 72 hrs by SRB assay; assay type: functional, cell-based; details: NCI-H1975, 72 h
[3] = biological target: T1, Epidermal growth factor receptor; assay: Inhibition of EGF-induced EGFR phosphorylation in human A431 cells at 0.01 uM incubated for 1 hr prior to EGF induction measured after 10 mins by Western blotting analysis; assay type: cell-based; details: A-431
[4] = biological target: T1, Epidermal growth factor receptor; assay: Inhibition of EGF-induced EGFR phosphorylation in human A431 cells assessed as decrease in ERK phosphorylation at 0.01 to 10 uM incubated for 1 hr prior to EGF induction measured after 10 mins by Western blotting analysis; assay type: cell-based; details: A-431
[5] = biological target: T1, Epidermal growth factor receptor; assay: Inhibition of wild type EGFR (unknown origin) expressed in baculovirus expression system using poly (Glu, Tyr) 4:1 as substrate after 60 mins by ELISA
[6] = system: A-431; assay: Antiproliferative activity against human A431 cells after 72 hrs by SRB assay; assay type: functional, cell-based; details: A-431, 72 h
[7] = biological target: T1, Epidermal growth factor receptor; assay: Inhibition of EGF-induced EGFR phosphorylation in human A431 cells assessed as decrease in AKT phosphorylation at 0.01 to 10 uM incubated for 1 hr prior to EGF induction measured after 10 mins by Western blotting analysis; assay type: cell-based; details: A-431
[8] = biological target: Epidermal growth factor receptor (Homo sapiens, UniProt P00533, L858M/T790M); assay: Inhibition of EGFR T790M/[…] double mutant (unknown origin) expressed in baculovirus expression system using poly (Glu, Tyr) 4:1 as substrate after 60 mins by ELISA
[9] = biological target: Tyrosine-protein kinase ABL1 (Homo sapiens, UniProt P00519); assay: Inhibition of recombinant ABL (unknown origin) using poly (Glu, Tyr) 4:1 as substrate after 60 mins by ELISA
[10] = biological target: Platelet-derived growth factor receptor alpha (Homo sapiens, UniProt P16234); assay: Inhibition of recombinant PDGFR-alpha (unknown origin) using poly (Glu, Tyr) 4:1 as substrate after 60 mins by ELISA
[11] = biological target: Macrophage-stimulating protein receptor (Homo sapiens, UniProt Q04912); assay: Inhibition of recombinant RON (unknown origin) using poly (Glu, Tyr) 4:1 as substrate after 60 mins by ELISA
[12] = biological target: Vascular endothelial growth factor receptor 1 (Homo sapiens, UniProt P17948); assay: Inhibition of recombinant FLT-1 (unknown origin) using poly (Glu, Tyr) 4:1 as substrate after 60 mins by ELISA
[13] = biological target: Platelet-derived growth factor receptor beta (Homo sapiens, UniProt P09619); assay: Inhibition of recombinant PDGFR-beta (unknown origin) using poly (Glu, Tyr) 4:1 as substrate after 60 mins by ELISA
[14] = biological target: Receptor tyrosine-protein kinase erbB-4 (Homo sapiens, UniProt Q15303); assay: Inhibition of recombinant ErbB4 (unknown origin) using poly (Glu, Tyr) 4:1 as substrate after 60 mins by ELISA
[15] = biological target: Mast/stem cell growth factor receptor Kit (Homo sapiens, UniProt P10721); assay: Inhibition of recombinant c-Kit (unknown origin) using poly (Glu, Tyr) 4:1 as substrate after 60 mins by ELISA
[16] = system: Epidermal growth factor receptor (Homo sapiens), P00533 [T790M]; assay: Inhibition of EGF-induced EGFR T790M mutant phosphorylation in human NCI-H1975 cells assessed as ERK phosphorylation at < 10 uM incubated for 1 hr prior to EGF induction measured after 10 mins by Western blotting analysis; assay type: cell-based
[17] = biological target: Fibroblast growth factor receptor 1 (Homo sapiens, UniProt P11362); assay: Inhibition of FGFR1 (unknown origin) expressed in baculovirus expression system using poly (Glu, Tyr) 4:1 as substrate after 60 mins by ELISA
[18] = biological target: Ephrin type-A receptor 2 (Homo sapiens, UniProt P29317); assay: Inhibition of recombinant EPHA2 (unknown origin) using poly (Glu, Tyr) 4:1 as substrate after 60 mins by ELISA
[19] = system: Epidermal growth factor receptor (Homo sapiens), P00533 [T790M]; assay: Inhibition of EGF-induced EGFR T790M mutant autophosphorylation in human NCI-H1975 cells at 10 uM incubated for 1 hr prior to EGF induction measured after 10 mins by Western blotting analysis; assay type: cell-based
[20] = system: Epidermal growth factor receptor (Homo sapiens), P00533 [T790M]; assay: Inhibition of EGF-induced EGFR T790M mutant phosphorylation in human NCI-H1975 cells assessed as AKT phosphorylation at < 10 uM incubated for 1 hr prior to EGF induction measured after 10 mins by Western blotting analysis; assay type: cell-based
[21] = biological target: Insulin-like growth factor 1 receptor (Homo sapiens, UniProt P08069); assay: Inhibition of IGF1R (unknown origin) expressed in baculovirus expression system using poly (Glu, Tyr) 4:1 as substrate after 60 mins by ELISA
[22] = biological target: Vascular endothelial growth factor receptor 2 (Homo sapiens, UniProt P35968); assay: Inhibition of KDR (unknown origin) expressed in baculovirus expression system using poly (Glu, Tyr) 4:1 as substrate after 60 mins by ELISA
[23] = biological target: T1, Epidermal growth factor receptor; assay: Irreversible inhibition of EGFR (unknown origin) using 5-FAM-EEPLYWSFPAKKK-CONH2 as substrate at 100 fold IC50 preincubated for 30 mins followed by 100 fold dilution measured for 2 hrs
[24] = biological target: Proto-oncogene tyrosine-protein kinase receptor Ret (Homo sapiens, UniProt P07949); assay: Inhibition of recombinant RET (unknown origin) using poly (Glu, Tyr) 4:1 as substrate after 60 mins by ELISA
[25] = biological target: Receptor tyrosine-protein kinase erbB-2 (Homo sapiens, UniProt P04626); assay: Inhibition of ErbB2 (unknown origin) expressed in baculovirus expression system using poly (Glu, Tyr) 4:1 as substrate after 60 mins by ELISA

Chain of Epidermal growth factor receptor (Homo sapiens, UniProt P00533, L858M/T790M) (P00533 25-1210 T790M/L858M limits assumed): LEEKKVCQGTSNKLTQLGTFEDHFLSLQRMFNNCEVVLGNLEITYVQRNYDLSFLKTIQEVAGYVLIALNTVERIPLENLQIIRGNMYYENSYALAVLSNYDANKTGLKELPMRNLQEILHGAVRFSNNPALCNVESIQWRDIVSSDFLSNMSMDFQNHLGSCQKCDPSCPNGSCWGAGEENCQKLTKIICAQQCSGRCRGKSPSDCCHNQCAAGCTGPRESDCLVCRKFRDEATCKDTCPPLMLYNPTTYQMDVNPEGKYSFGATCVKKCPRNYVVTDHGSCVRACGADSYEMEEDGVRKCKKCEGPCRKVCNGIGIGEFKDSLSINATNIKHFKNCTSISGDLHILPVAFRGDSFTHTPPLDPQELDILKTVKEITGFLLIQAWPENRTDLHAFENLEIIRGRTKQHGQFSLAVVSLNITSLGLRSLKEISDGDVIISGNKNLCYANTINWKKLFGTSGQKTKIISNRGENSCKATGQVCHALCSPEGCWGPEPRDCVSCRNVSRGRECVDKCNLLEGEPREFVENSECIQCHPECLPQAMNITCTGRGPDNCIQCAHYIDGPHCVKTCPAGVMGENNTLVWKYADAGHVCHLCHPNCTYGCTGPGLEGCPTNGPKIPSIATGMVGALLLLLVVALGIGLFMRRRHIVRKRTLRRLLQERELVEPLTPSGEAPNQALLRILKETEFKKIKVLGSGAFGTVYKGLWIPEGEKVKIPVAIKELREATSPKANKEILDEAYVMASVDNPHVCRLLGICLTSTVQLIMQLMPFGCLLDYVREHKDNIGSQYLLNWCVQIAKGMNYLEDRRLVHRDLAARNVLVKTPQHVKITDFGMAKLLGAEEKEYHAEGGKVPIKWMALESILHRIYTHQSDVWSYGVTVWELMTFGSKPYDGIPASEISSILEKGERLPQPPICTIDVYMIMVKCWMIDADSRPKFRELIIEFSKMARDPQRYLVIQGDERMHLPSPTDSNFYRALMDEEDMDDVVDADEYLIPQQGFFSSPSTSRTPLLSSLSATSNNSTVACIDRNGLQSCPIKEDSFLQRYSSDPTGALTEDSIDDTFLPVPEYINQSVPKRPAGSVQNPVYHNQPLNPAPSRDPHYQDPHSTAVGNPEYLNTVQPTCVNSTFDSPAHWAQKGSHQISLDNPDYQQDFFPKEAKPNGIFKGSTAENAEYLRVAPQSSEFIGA
Chain of Epidermal growth factor receptor (Homo sapiens), P00533 [T790M] (P00533 whole entry T790M): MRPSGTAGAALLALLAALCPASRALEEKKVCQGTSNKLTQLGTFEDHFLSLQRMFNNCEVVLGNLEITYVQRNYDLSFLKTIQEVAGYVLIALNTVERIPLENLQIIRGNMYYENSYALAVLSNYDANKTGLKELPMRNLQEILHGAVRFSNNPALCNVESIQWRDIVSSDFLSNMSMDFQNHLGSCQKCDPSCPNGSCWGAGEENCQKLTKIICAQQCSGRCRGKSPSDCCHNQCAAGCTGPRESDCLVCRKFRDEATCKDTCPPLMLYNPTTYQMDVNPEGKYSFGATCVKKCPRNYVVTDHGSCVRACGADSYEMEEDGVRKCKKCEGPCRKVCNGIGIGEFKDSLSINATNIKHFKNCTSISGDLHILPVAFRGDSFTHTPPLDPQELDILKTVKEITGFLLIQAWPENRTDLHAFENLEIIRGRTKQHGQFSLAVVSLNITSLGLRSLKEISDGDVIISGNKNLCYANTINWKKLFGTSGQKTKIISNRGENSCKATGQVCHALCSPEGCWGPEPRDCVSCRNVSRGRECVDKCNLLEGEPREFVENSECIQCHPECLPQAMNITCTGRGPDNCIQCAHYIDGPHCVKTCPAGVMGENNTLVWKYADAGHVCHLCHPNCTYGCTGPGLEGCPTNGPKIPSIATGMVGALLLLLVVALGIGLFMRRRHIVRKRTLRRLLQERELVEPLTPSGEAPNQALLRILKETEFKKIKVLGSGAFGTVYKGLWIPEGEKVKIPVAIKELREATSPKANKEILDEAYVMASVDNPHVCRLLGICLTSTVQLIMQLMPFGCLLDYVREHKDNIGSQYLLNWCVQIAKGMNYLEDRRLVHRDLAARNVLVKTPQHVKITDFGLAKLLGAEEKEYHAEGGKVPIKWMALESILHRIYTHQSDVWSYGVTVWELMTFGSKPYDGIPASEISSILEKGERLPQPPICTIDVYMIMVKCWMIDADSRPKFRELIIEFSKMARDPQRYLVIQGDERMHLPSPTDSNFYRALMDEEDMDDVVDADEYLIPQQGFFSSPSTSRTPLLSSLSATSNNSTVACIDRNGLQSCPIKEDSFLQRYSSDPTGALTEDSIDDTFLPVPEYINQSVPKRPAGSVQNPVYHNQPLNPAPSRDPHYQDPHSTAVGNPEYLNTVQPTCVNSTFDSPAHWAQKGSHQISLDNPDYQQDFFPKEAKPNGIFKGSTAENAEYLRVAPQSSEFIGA
T1 sequence (P00533 whole entry): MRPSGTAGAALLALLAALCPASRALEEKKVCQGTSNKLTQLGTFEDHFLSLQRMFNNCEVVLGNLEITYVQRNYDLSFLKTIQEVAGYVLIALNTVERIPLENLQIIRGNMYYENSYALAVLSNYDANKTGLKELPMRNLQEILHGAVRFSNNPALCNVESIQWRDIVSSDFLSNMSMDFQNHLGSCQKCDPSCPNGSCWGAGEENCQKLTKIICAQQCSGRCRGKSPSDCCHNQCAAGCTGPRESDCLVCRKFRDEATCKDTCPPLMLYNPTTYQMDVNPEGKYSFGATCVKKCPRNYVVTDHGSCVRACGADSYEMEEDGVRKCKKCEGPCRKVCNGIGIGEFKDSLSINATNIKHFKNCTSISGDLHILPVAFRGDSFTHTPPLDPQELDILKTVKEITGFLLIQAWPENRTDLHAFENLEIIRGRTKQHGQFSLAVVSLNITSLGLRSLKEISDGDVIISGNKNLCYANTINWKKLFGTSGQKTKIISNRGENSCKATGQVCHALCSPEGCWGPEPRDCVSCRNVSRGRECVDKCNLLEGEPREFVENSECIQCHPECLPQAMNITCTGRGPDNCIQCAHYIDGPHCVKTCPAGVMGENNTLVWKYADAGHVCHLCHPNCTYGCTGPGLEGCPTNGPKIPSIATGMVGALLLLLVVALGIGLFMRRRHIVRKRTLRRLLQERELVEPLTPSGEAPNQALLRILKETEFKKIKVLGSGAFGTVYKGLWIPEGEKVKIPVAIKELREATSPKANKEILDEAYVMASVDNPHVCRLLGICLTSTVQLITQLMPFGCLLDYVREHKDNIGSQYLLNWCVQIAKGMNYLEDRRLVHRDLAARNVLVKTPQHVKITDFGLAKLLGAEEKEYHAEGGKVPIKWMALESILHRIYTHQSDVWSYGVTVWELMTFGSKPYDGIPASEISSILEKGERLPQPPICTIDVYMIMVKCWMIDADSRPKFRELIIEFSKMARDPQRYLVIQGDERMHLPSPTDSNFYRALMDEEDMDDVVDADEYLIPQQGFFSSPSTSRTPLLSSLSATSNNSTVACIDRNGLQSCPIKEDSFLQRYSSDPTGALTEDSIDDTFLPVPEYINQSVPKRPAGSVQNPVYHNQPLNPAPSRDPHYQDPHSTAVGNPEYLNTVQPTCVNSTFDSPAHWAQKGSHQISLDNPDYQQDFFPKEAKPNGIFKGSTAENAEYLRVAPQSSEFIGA
Chain of Vascular endothelial growth factor receptor 1 (P17948 whole entry): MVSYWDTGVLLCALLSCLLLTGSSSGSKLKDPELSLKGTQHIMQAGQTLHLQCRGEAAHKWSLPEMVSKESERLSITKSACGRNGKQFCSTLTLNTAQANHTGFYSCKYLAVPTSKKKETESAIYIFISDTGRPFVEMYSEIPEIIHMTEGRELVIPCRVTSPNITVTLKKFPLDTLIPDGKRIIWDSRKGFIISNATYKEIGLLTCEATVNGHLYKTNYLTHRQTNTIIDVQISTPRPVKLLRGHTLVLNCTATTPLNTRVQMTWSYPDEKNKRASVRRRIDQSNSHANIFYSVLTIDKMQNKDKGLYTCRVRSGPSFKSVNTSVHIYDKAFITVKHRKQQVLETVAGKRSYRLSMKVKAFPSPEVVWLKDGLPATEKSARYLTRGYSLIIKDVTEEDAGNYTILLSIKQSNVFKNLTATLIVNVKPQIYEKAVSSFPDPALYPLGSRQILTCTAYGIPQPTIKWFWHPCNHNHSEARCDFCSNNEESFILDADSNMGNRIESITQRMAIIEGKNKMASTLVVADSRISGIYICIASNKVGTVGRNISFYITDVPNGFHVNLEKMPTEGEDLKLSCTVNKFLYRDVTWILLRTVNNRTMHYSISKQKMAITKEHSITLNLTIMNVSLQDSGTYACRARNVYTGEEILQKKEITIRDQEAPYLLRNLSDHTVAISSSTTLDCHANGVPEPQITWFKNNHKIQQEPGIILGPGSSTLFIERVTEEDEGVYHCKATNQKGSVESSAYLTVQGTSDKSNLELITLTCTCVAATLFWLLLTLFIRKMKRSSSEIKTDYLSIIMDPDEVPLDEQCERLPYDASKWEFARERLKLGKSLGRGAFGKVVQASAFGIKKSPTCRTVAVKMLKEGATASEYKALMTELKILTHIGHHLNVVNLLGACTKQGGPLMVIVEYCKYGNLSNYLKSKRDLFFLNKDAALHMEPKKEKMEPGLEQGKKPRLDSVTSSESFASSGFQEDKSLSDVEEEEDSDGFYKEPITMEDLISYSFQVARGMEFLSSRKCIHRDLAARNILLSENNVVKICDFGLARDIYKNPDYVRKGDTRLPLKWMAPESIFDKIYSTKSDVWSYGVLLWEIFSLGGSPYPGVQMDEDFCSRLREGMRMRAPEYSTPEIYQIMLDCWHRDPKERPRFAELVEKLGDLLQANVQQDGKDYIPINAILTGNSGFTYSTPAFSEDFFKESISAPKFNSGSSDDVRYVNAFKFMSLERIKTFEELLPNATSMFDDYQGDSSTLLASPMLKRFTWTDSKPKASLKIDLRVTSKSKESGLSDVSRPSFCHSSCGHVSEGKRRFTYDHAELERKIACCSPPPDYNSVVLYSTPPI

For `CN(C)CCCNC(=O)Nc1cc2c(Nc3ccc(F)c(Cl)c3)ncnc2cc1O[C@H]1CCOC1`, the inhibition [1] was “Dose-dependent effect”, the IC50 [2] was 6300 nM and the inhibition [3] was “Active”. For the same compound, the inhibition [4] was “Active”, the IC50 [5] was 24 nM and the IC50 [6] was 226 nM. For the same compound, the inhibition [7] was “Active” and the IC50 [8] was 276 nM.

With `C#CCNC(=O)Nc1cc2c(Nc3ccc(F)c(Cl)c3)ncnc2cc1O[C@H]1CCOC1` the IC50 [2] was 14800 nM, the IC50 [5] was 232 nM and the IC50 [6] was 3730 nM. The IC50 [8] was 374 nM.

Compound `CCN(CC)CCNC(=O)Nc1cc2c(Nc3ccc(F)c(Cl)c3)ncnc2cc1O[C@H]1CCOC1` has an IC50 [2] of 5200 nM, an IC50 [5] of 365 nM and an IC50 [6] of 249 nM. The IC50 [8] was 2240 nM.

In the case of `CN(C)C/C=C/C(=O)Nc1cc2c(Nc3ccc(F)c(Cl)c3)ncnc2cc1O[C@H]1CCOC1` [AFATINIB], the IC50 [2] is reported as 148 nM.

Compound `CN1CCN(C(=O)Nc2cc3c(Nc4ccc(F)c(Cl)c4)ncnc3cc2O[C@H]2CCOC2)CC1` has an IC50 [2] of 12300 nM, an IC50 [5] of 464 nM and an IC50 [6] of 675 nM. For the same compound, the IC50 [8] was 5580 nM.

`O=C(Nc1cc2c(Nc3ccc(F)c(Cl)c3)ncnc2cc1O[C@H]1CCOC1)N1CCCC(F)(F)C1` gave an IC50 [2] of 43200 nM, an IC50 [5] of 884 nM and an IC50 [6] of 935 nM. The IC50 [8] was 1890 nM.

For `CN(C)CCN(C)C(=O)Nc1cc2c(Nc3ccc(F)c(Cl)c3)ncnc2cc1O[C@H]1CCOC1`, the IC50 [2] was 8200 nM, the IC50 [5] was 281 nM and the IC50 [6] was 450 nM. It also gave an IC50 [8] of 677 nM.

`O=C(NCCN1CCCC1)Nc1cc2c(Nc3ccc(F)c(Cl)c3)ncnc2cc1O[C@H]1CCOC1` was tested, and the IC50 [9] was > 10000 nM, the IC50 [10] was > 10000 nM and the IC50 [11] was 6100 nM. For the same compound, the IC50 [12] was > 10000 nM, the IC50 [13] was > 10000 nM and the IC50 [14] was 12 nM. The IC50 [15] was > 10000 nM, the inhibition [16] was “inactive” and the IC50 [17] was > 10000 nM. For the same compound, the IC50 [2] was 5300 nM, the IC50 [18] was > 10000 nM and the inhibition [19] was “Active”. For the same compound, the inhibition [20] was “inactive”, the IC50 [21] was > 10000 nM and the IC50 [22] was > 10000 nM. The IC50 [5] was 68 nM, the inhibition [23] was “Active” and the IC50 [6] was 247 nM. The IC50 [24] was 223 nM, the IC50 [8] was 61 nM and the IC50 [25] was 112 nM.

In the case of `CCN(CC)CCCNC(=O)Nc1cc2c(Nc3ccc(F)c(Cl)c3)ncnc2cc1O[C@H]1CCOC1`, the IC50 [9] is reported as 566 nM, the IC50 [10] is reported as > 10000 nM and the IC50 [11] is reported as > 10000 nM. The IC50 [12] was > 10000 nM, the IC50 [13] was > 10000 nM and the IC50 [14] was 8 nM. For the same compound, the IC50 [15] was > 10000 nM, the IC50 [17] was > 10000 nM and the inhibition [1] was “Dose-dependent effect”. For the same compound, the IC50 [2] was 4300 nM, the inhibition [3] was “Active” and the IC50 [18] was > 10000 nM. For the same compound, the inhibition [4] was “Active”, the IC50 [21] was > 10000 nM and the IC50 [22] was > 10000 nM. The IC50 [5] was 32 nM, the IC50 [6] was 196 nM and the inhibition [7] was “Active”. For the same compound, the IC50 [24] was 347 nM, the IC50 [8] was 3060 nM and the IC50 [25] was 78 nM.

`O=C(Nc1cc2c(Nc3ccc(F)c(Cl)c3)ncnc2cc1O[C@H]1CCOC1)N1CC(F)C1` gave an IC50 [2] of 13400 nM, an IC50 [5] of 967 nM and an IC50 [6] of 5780 nM. The IC50 [8] was 2170 nM.

With `COC(CCNC(=O)Nc1cc2c(Nc3ccc(F)c(Cl)c3)ncnc2cc1O[C@H]1CCOC1)OC` the IC50 [2] was > 100000 nM, the IC50 [5] was 544 nM and the IC50 [6] was 22000 nM. It also gave an IC50 [8] of 400 nM.

Compound `COC(=O)/C=C/CNC(=O)Nc1cc2c(Nc3ccc(F)c(Cl)c3)ncnc2cc1O[C@H]1CCOC1` has an IC50 [2] of 9600 nM, an IC50 [5] of 404 nM and an IC50 [6] of 1410 nM. The IC50 [8] was 265 nM.

`CN(C)CCNC(=O)Nc1cc2c(Nc3ccc(F)c(Cl)c3)ncnc2cc1O[C@H]1CCOC1` was tested, and the IC50 [2] was 4700 nM, the IC50 [5] was 635 nM and the IC50 [6] was 806 nM. For the same compound, the IC50 [8] was 2080 nM.

Work on `O=C(Nc1cc2c(Nc3ccc(F)c(Cl)c3)ncnc2cc1O[C@H]1CCOC1)N1CCC(F)(F)C1` yielded an IC50 [2] of 4500 nM, an IC50 [5] of 1580 nM and an IC50 [6] of 1480 nM. The IC50 [8] was 3120 nM.

In the case of `O=C(NCCN1CCOCC1)Nc1cc2c(Nc3ccc(F)c(Cl)c3)ncnc2cc1O[C@H]1CCOC1`, the inhibition [16] is reported as “inactive”, the IC50 [2] is reported as 5300 nM and the inhibition [19] is reported as “Active”. For the same compound, the inhibition [20] was “inactive”, the IC50 [5] was 82 nM and the IC50 [6] was 307 nM. It also gave an IC50 [8] of 49 nM.
